# Source: PubChem BioAssay AID2060603 (Molecular Pharmacology Branch, DTP, NCI, 2025)
# pIC50: −log10 of the molar value.
# System: 422866-222-R5-J1-PDC spheroid viability
# Assay: Anticancer human tumor 422866-222-R5-J1-PDC patient-derived pancreatic adenocarcinoma cell line growth inhibition [CLK]
# Details: spheroids with HUVEC and MSC; for pIC50: curve of first compound; for viability, T/C: stronger effect = lower value
# From the text: A high-throughput screen of multi-cell type tumor spheroids was designed to identify active combinations of […] and targeted small molecules. Complex spheroids include a stromal component modeled by human endothelial cells (HUVEC) and fibroblasts modeled by human mesenchymal stem cells (MSCs). The concentration ranges selected for each drug and investigational agent were based upon clinically achievable concentrations if the clinical Cmax of the agent was known.
# Compounds. The drugs and investigational agents: cirtuvivint (SM08502; NSC835563), CC-671 (NSC850746), vemurafenib (NSC761431), tapotoclax (NSC804041), sotorasib (NSC818433), adagrasib (NSC831453), MRTX-1133 (NSC836407), BAY2416964 (NSC825713), copanlisib (NSC816437), inavolisib (NSC800729), abemaciclib (NSC768073), osimertinib (NSC779217), entinostat (NSC756642), eltanexor (KPT-8602, NSC794443), venetoclax (NSC766270), ceralasertib (NSC777638), bortezomib (NSC756655), olaparib (NSC753686), talazoparib (NSC767125), alisertib (NSC759677), peposertib (NSC802822), gemcitabine (NSC613327), 5-fluorouracil (NSC19893), SN-38 (NSC673596), oxaliplatin (NSC266046), paclitaxel (NSC125973), and doxorubicin (NSC123127), were obtained from the National Cancer Institute (NCI) Developmental Therapeutics Program Chemical Repository. The FDA-approved anticancer drug set is available from the Developmental Therapeutics Program at https://dtp.cancer.gov/organization/dscb/obtaining/available plates.htm. […] The stock solutions were prepared in dimethyl sulfoxide (DMSO, Sigma-Aldrich, St. Louis, MO, cat. D2650), except for the platinum complexes which were prepared in saline (Quality Biological, Gaithersburg, MD, cat. 114-055-101), at 800-fold the tested concentration and stored at -70 degrees C prior to their use. All drugs and investigational agents were tested over a range starting from a high concentration at or near the clinical Cmax and decreasing in half-log increments. If the clinical Cmax for an agent had not been determined, the highest concentration tested was 10 microM.
# Cell Culture. All cells were maintained in an incubator at 37 degrees C and 5% CO2 with 95% humidity. The PDC lines were cultured according to standard operating procedures established by the NCI PDMR. Briefly, all PDCs were thawed and cultured in Matrigel-coated flasks prepared with a working solution of 1X Ham's F-12 nutrient mix, without supplementation (Invitrogen, Waltham, MA, cat. 11765054), 100 U/mL penicillin-streptomycin (Invitrogen, cat. 15140122), and 2.5% Matrigel (Corning Inc., Corning, NY, cat. 354248) for the first three passages. The 947758-054-R-J2-PDC line was cultured in 6B/Colon 1A media, which includes advanced DMEM/F-12 (Thermo Fisher Scientific, cat. 12634028), 10 mM HEPES (Thermo Fisher Scientific, cat. 15630080), 1X GlutaMAX supplement (Thermo Fisher Scientific, cat. 35050061), 0.1 mg/mL primocin (InvivoGen, cat. ant-pm-2), 10% defined fetal bovine serum, heat inactivated (HyClone Laboratories Inc., cat. SH30070.03HI), 1.25 mM N-Acetyl-L-cysteine (Sigma-Aldrich, cat. A9165), 10 mM nicotinamide (Sigma-Aldrich, cat. N0636), 1X B-27 supplement (Thermo Fisher Scientific, cat. 17504044), 1X N-2 supplement (Thermo Fisher Scientific, cat. 17502048), and 10 microM Y-27632 dihydrochloride (Tocris Bioscience, cat. 1254). The 876862-298-R-J1-PDC was cultured in 6E media, which includes all 6B/Colon 1A media components plus 50% L-WRN conditioned media (ATCC, cat. CRL-3276), 50 ng/mL recombinant human EGF recombinant protein (hEGF; Thermo Fisher Scientific, cat. PHG0311), 10 ng/mL recombinant human fibroblast growth factor 10 (hGFG-10; PeproTech, cat. 100-26), 1 ng/mL recombinant human fibroblast growth factor 2 (hFGF-2; PeproTech, cat. 100-18B), and 1 µM prostaglandin E2 (PGE2; Tocris, cat. 2296). The 227483-062-R1-J1-PDC line was cultured in Panc media, containing all 6E components except hFGF-2, with the addition of 500 nM SB-431542 (Selleckchem, cat. S1067) and 10 nM gastrin (Tocris, cat. 3006). […]
# [1] = second compound 0.0316 µM, first compound 0.0316 µM
# [2] = second compound 0.0316 µM, first compound 0.1 µM
# [3] = second compound 0.0316 µM, first compound 0.316 µM
# [4] = second compound 0.0316 µM, first compound 1 µM
# [5] = second compound 0.1 µM, first compound 0.0316 µM
# [6] = second compound 0.1 µM, first compound 0.1 µM
# [7] = second compound 0.1 µM, first compound 0.316 µM
# [8] = second compound 0.1 µM, first compound 1 µM
# [9] = second compound 0.316 µM, first compound 0.0316 µM
# [10] = second compound 0.316 µM, first compound 0.1 µM
# [11] = second compound 0.316 µM, first compound 0.316 µM
# [12] = second compound 0.316 µM, first compound 1 µM
# [13] = second compound 1 µM, first compound 0.0316 µM
# [14] = second compound 1 µM, first compound 0.1 µM
# [15] = second compound 1 µM, first compound 0.316 µM
# [16] = second compound 1 µM, first compound 1 µM
# [17] = second compound 3.16 µM, first compound 0.0316 µM
# [18] = second compound 3.16 µM, first compound 0.1 µM
# [19] = second compound 3.16 µM, first compound 0.316 µM
# [20] = second compound 3.16 µM, first compound 1 µM
# [21] = second compound 10 µM, first compound 0.0316 µM
# [22] = second compound 10 µM, first compound 0.1 µM
# [23] = second compound 10 µM, first compound 0.316 µM
# [24] = second compound 10 µM, first compound 1 µM
# 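Further: spheroids exposed to agents for seven days before readout.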
smiles,measurement,setting,value
CC(CO)NC(=O)c1cc(-c2ccc(Cl)cc2)nn(-c2cnn(C)c2)c1=O (centres undefined) + CN1CCN(c2cc(C(=O)Nc3cc4cc(-c5cnn(C)c5)ccc4cn3)ccn2)CC1,pIC50,second compound 0.0316 µM,< 5.00
same,pIC50,second compound 0.1 µM,< 5.00
same,pIC50,second compound 0.316 µM,< 5.00
same,pIC50,second compound 1 µM,> 7.50
same,pIC50,second compound 3.16 µM,> 7.50
same,pIC50,second compound 10 µM,> 7.50
same,"viability, T/C",[1],115%
same,"viability, T/C",[2],104%
same,"viability, T/C",[3],106%
same,"viability, T/C",[4],135%
same,"viability, T/C","second compound 0.0316 µM, first compound 3.16 µM",106%
same,"viability, T/C","second compound 0.0316 µM, first compound 10 µM",75.7%
same,"viability, T/C",[5],115%
same,"viability, T/C",[6],118%
same,"viability, T/C",[7],104%
same,"viability, T/C",[8],116%
same,"viability, T/C","second compound 0.1 µM, first compound 3.16 µM",104%
same,"viability, T/C","second compound 0.1 µM, first compound 10 µM",82.6%
same,"viability, T/C",[9],107%
same,"viability, T/C",[10],93.5%
same,"viability, T/C",[11],86.9%
same,"viability, T/C",[12],88.7%
same,"viability, T/C","second compound 0.316 µM, first compound 3.16 µM",80.8%
same,"viability, T/C","second compound 0.316 µM, first compound 10 µM",68.8%
same,"viability, T/C",[13],30.9%
same,"viability, T/C",[14],27.6%
same,"viability, T/C",[15],31.6%
same,"viability, T/C",[16],31.1%
same,"viability, T/C","second compound 1 µM, first compound 3.16 µM",31.3%
same,"viability, T/C","second compound 1 µM, first compound 10 µM",32%
same,"viability, T/C",[17],13.1%
same,"viability, T/C",[18],13.4%
same,"viability, T/C",[19],12.1%
same,"viability, T/C",[20],12%
same,"viability, T/C","second compound 3.16 µM, first compound 3.16 µM",11.5%
same,"viability, T/C","second compound 3.16 µM, first compound 10 µM",13.6%
same,"viability, T/C",[21],2.51%
same,"viability, T/C",[22],3.09%
same,"viability, T/C",[23],1.44%
same,"viability, T/C",[24],2.25%
same,"viability, T/C","second compound 10 µM, first compound 3.16 µM",3.26%
same,"viability, T/C","second compound 10 µM, first compound 10 µM",1.54%
CCN1CCN(Cc2ccc(Nc3ncc(F)c(-c4cc(F)c5nc(C)n(C(C)C)c5c4)n3)nc2)CC1 + CN1CCN(c2cc(C(=O)Nc3cc4cc(-c5cnn(C)c5)ccc4cn3)ccn2)CC1,pIC50,second compound 0.0316 µM,< 6.00
same,pIC50,second compound 0.1 µM,< 6.00
same,pIC50,second compound 0.316 µM,< 6.00
same,pIC50,second compound 1 µM,> 8.50
same,pIC50,second compound 3.16 µM,> 8.50
same,pIC50,second compound 10 µM,> 8.50
same,"viability, T/C","second compound 0.0316 µM, first compound 0.00316 µM",110%
same,"viability, T/C","second compound 0.0316 µM, first compound 0.01 µM",101%
same,"viability, T/C",[1],89%
same,"viability, T/C",[2],88.8%
same,"viability, T/C",[3],90.8%
same,"viability, T/C",[4],110%
same,"viability, T/C","second compound 0.1 µM, first compound 0.00316 µM",122%
same,"viability, T/C","second compound 0.1 µM, first compound 0.01 µM",113%
same,"viability, T/C",[5],93.8%
same,"viability, T/C",[6],85.5%
same,"viability, T/C",[7],72.5%
same,"viability, T/C",[8],107%
same,"viability, T/C","second compound 0.316 µM, first compound 0.00316 µM",103%
same,"viability, T/C","second compound 0.316 µM, first compound 0.01 µM",84.9%
same,"viability, T/C",[9],89%
same,"viability, T/C",[10],72.3%
same,"viability, T/C",[11],69.4%
same,"viability, T/C",[12],84.5%
same,"viability, T/C","second compound 1 µM, first compound 0.00316 µM",34.6%
same,"viability, T/C","second compound 1 µM, first compound 0.01 µM",37.7%
same,"viability, T/C",[13],34.4%
same,"viability, T/C",[14],41.9%
same,"viability, T/C",[15],53.5%
same,"viability, T/C",[16],49.8%
same,"viability, T/C","second compound 3.16 µM, first compound 0.00316 µM",8.29%
same,"viability, T/C","second compound 3.16 µM, first compound 0.01 µM",8.47%
same,"viability, T/C",[17],8.82%
same,"viability, T/C",[18],7.58%
same,"viability, T/C",[19],9.92%
same,"viability, T/C",[20],13.5%
same,"viability, T/C","second compound 10 µM, first compound 0.00316 µM",1.95%
same,"viability, T/C","second compound 10 µM, first compound 0.01 µM",2.42%
same,"viability, T/C",[21],1.51%
same,"viability, T/C",[22],1.89%
same,"viability, T/C",[23],2.56%
same,"viability, T/C",[24],1.96%
